The values below come from patent US20100333217A1, “SCREENING METHOD FOR THE COMPOSITION FOR PREVENTION OR TREATMENT OF OSTEOPOROSIS AND METABOLIC BONE DISEASE USING TALLYHO/JNGJ MOUSE” (KOREA RESERACH INSTITUTE OF CHEMICAL TECHNOLOGY, priority 2007, published 2010).

The test system of one test is IL-6. The conditions noted are these: male TH mice, oral 5 mg/kg once a day for 4 weeks; ELISA (FIG. 20). The procedure: (§1) Thereafter, the bone mineral density and the bone mineral content of the femur and the thickness and the bone mineral density of the skull were measured as described in Examples 2 and 3.
Meanwhile, after separating the blood serum, IL-6 level was measured using ELISA Kit (ALPCO diagnostics, USA).
On the technique in general: An ELISA detects its analyte on a solid surface through an enzyme-linked reagent.

The next test concerns RANKL. To be noted: cells separated from bone marrow of treated TH mice and cultured, RT-PCR; vs vehicle (FIG. 21). The procedure:
(§2) After separating mRNA from the cell of FIG. 4, the expression levels of the genes related to the differentiation of osteoblast and osteoclast and cytokines were analyzed. The total RNA was obtained from the Extraction Kit (Intron, Seongnam, Korea) according to the manufacturer's protocol. The separated RNA was weighed by measuring the absorbance. The reverse transcription PCR (RT-PCR) was performed using primers listed in Table 1 under the following conditions to examine the expression level of each of the genes.
(§3) Reverse Transcription System (Promega, USA) was added with total RNA 1 μg, 10 mM dNTP 2 μl, 100 pmole Oligo dT 1 μl, 10×buffer 2 μl, 25 mM MgCl2 4 μl, RNase inhibitor 0.2 μl, AMV RTase 0.2 μl, and DEPC-treated water, and cultured at 42° C. for 60 minutes and at 72° C. for 10 minutes to prepare cDNA. Then, the reverse transcripted cDNA sample was amplified using primer pairs specific to respective target genes. The PCR was repeated 25-30 times after denaturation at 95° C. for 5 minutes. In specific, the PCR was performed under the condition of denaturation at 95° C. for 30 seconds, primer annealing at 55° C. (NPY1receptor), 56° C.
as §1

The test system of the next test is OPG. To be noted: cells separated from bone marrow of treated TH mice and cultured, RT-PCR; vs vehicle (FIG. 21). As to the method:
as §2, §3, §1

The subject of test [1] is male TH mice. Briefly: Micro-CT bone mineral density, bone mineral content and skull thickness in drug-treated male TH mice. Format: in vivo, mouse. As to the method:
Control mice (C57BL/6) and TH mice were freely fed, and their bone mineral densities were measured every week from 4 week age to 20 week age after delectation. The mice were anesthetized with Avertin (2,2,2-tribromoethanol) to keep them alive while measuring their bone mineral densities. […] Thereafter, the resulting images were reformed using Microview (GE Healthcare, USA) to obtain the final bone mineral density (BMD) and the final bone mineral content (BMC) (see FIG. 2).
Control mice (C57BL/6) and TH mice were fed freely. […] Thereafter, the bone thicknesses and the bone mineral densities of the extracted skulls were measured as described in Example 2, using a tomographic apparatus (micro-CT) for animals.
8-week-old male TH mice were orally administered with parathyroid hormone (hPTH(1-34), Sigma, USA), which is started to be used as an osteoporosis medicine increasing the bone mineral content, with a concentration of 50 μg/kg, once a day for 4 weeks.

Test [2] has as its system male TH mice. The conditions noted are these: oral 5 mg/kg once a day for 4 weeks, femur of 8-week-old mouse, micro-CT (FIG. 19). The procedure:
Thereafter, the bone mineral density and the bone mineral content of the femur and the thickness and the bone mineral density of the skull were measured as described in Examples 2 and 3. […] The TH mice and B6 mice were sacrificed with carbon dioxide. The femurs thereof were extracted and scanned 400 times with a thickness of […] using eXplore Locus micro-CT (GE Healthcare, USA) which is devised as a tomographic apparatus for small animals. The scanned images were accurately reformed using Microview (GE Healthcare, USA) to obtain final histomorphological images of the femurs.

Consider `NCCCC(O)(P(=O)(O)O)P(=O)(O)O` [alendronate], for which the “IL-6 level in blood serum” value in the test with IL-6 is listed as “low IL-6 level”. In addition, in the test with RANKL, the RANKL gene expression entry is listed as “decreased”. Besides, the OPG gene expression result with OPG is “increased”. The “bone mineral contents in the femurs” value in the test with male TH mice [1] (4-week-old male TH mice, oral 5 mg/kg once a day for 4 weeks, vs 8-week-old TH mice treated with vehicle only (FIG. 16)) is on record as “significantly recovered”. Besides, the “thicknesses of the skulls” value with male TH mice [1] (4-week-old male TH mice, oral 5 mg/kg once a day for 4 weeks, vs TH mice vehicle (FIG. 17)) is “significantly recovered”. In the test on male TH mice [2], the “histomorphological images of the femurs (recovering the bone loss)” value was “filled with trabeculars”.
Regarding “parathyroid hormone (hPTH(1-34) (SVSEIQLMHNLGKHLNSMERVEWLRKKLQDVHNF; Parathyroid hormone; UniProt P01270 32-65, looked up, fragment) [parathyroid hormone hPTH(1-34), Sigma; osteoporosis medicine increasing the bone mineral content]”, the bone mineral densities result in the test on male TH mice [1] (8-week-old male TH mice, 50 μg/kg once a day for 4 weeks, orally administered (so in the source), femur, vs 12-week-old TH mice treated with vehicle only (FIG. 22)) is “significantly recovered”. The bone mineral contents entry with male TH mice [1] (8-week-old male TH mice, 50 μg/kg once a day for 4 weeks, orally administered (so in the source), femur, vs 12-week-old TH mice treated with vehicle only (FIG. 23)) was “significantly recovered”.
